Source: publication PMC6150245 (Molecules : A Journal of Synthetic Chemistry and Natural …, 2017)
In brackets after ≈: the same amount, converted by molar mass. Bridge positions count the residues as written; N and C are the ends. Peptide text beside a SMILES is read from it. I, II: the chains in the order shown.

Assays:
C. albicans ATCC18804 = assay: Antifungal MIC, microdilution in RPMI 1640; assay type: cell-based, Candida albicans; conditions: C. albicans ATCC18804, RPMI 1640, 48 h, 37 °C, peptides 128-1 µM, triplicate
Method: The minimum inhibitory concentrations (MIC) were determined following the Clinical and Laboratory Standards Institute (CLSI) recommendations. Antibacterial and antifungal activity tests were performed using the microdilution method. For initial screening, peptides were tested against C. albicans ATCC18804, E. coli ATCC25922, and S. aureus ATCC25923. Briefly, bacterial cells in MH broth (80 μL aliquots containing 1.5 × 10^7 CFU) were incubated with synthetic peptides (serial dilution from 512 to 1 μM) dissolved in Milli-Q water. After incubation for 24 h at 37 °C, the microtiter plates were analyzed visually by addition of resazurin. For the antifungal assays, the culture medium was RPMI 1640 buffered with L-glutamine (pH 7.2), 0.165 M morpholinepropanesulfonic acid (MOPS), and 2% glucose. Cell suspensions (final concentration of 1 × 10^3–2.5 × 10^3 CFU/mL) were inoculated on a microdilution plate previously prepared with serially diluted synthetic peptides (128–1 μM). The plates were incubated for 48 h at 37 °C. Each assay was performed in triplicates. Additionally, amphotericin B and fluconazole were used as the control drugs. MIC was defined as the lowest concentration of peptide at which no growth was detected.

human red blood cells = assay: Hemolysis assay; assay type: cell-based; conditions: 1% (v/v) human erythrocytes in Tris-saline pH 7.4, 1 h, 37 °C, absorbance 405 nm, triplicate
Method: Peptide hemolysis assays were performed as previously described by Castro et al.. Briefly, freshly prepared human red blood cells (RBCs) were washed three times with 0.01 M Tris-HCl (pH 7.4) containing 0.15 M NaCl (Tris-saline). A suspension of 1% (v/v) erythrocytes was made with packed RBCs resuspended in Tris-saline. Peptides were dissolved in Tris-saline at an initial concentration of […] and serially diluted in the same buffer to determine the concentration that triggered 50% hemolysis (HC50). As the positive control (100% lysis), 1% (v/v) Triton X-100 solution was used. After 1 h of incubation at 37 °C, the samples were centrifuged at 3000× g for 5 min. Then, 100 µL aliquots of the supernatant were transferred to 96-well microplates, and the absorbance was determined at 405 nm. The assay was performed in triplicates.

S. aureus SA90 = assay type: cell-based, Staphylococcus aureus
Method: (§1) After confirming antibacterial activity, the peptides were tested against gram-positive and gram-negative multidrug-resistant bacteria, including strains of clinical origin. The peptides, p-BthTX-I, des-Lys^12/(p-BthTX-I)2, and Lys^13-(p-BthTX-I)2 were serially diluted (512–1 μM) in cation-adjusted BBL MH II broth (CAMHB; Becton, Dickson and Co., Sparks, MD, USA) as described by CLSI. Bacteria at 5.0 × 10^5 CFU/mL were added to the media and incubated for 24 h at 37 °C. […] Assays were performed in duplicates, and sterile broth was used as the negative control. To determine the minimal bactericidal concentration (MBC), 100 µL from each well of the MIC assay plates that inhibited bacterial growth were sub-cultured onto MH agar (MHA) plates. […] If the ratio of MBC/MIC was >4, the activity of the peptide was considered bacteriostatic, as described previously.

K. pneumoniae ATCC700603 = assay type: cell-based, Klebsiella pneumoniae
Method: as §1

CC(C)C[C@H](NC(=O)[C@H](Cc1c[nH]cn1)NC(=O)[C@H](Cc1ccc(O)cc1)NC(=O)[C@H](CCCNC(=N)N)NC(=O)[C@H](Cc1ccc(O)cc1)NC(=O)[C@H](CCCCN)NC(=O)[C@@H](N)CCCCN)C(=O)N[C@@H](CCCCN)C(=O)N1CCC[C@H]1C(=O)N[C@@H](Cc1ccccc1)C(=O)N[C@@H](CSSC[C@H](NC(=O)[C@H](Cc1ccccc1)NC(=O)[C@@H]1CCCN1C(=O)[C@H](CCCCN)NC(=O)[C@H](CC(C)C)NC(=O)[C@H](Cc1c[nH]cn1)NC(=O)[C@H](Cc1ccc(O)cc1)NC(=O)[C@H](CCCNC(=N)N)NC(=O)[C@H](Cc1ccc(O)cc1)NC(=O)[C@H](CCCCN)NC(=O)[C@@H](N)CCCCN)C(=O)N[C@@H](CCCCN)C(=O)N[C@@H](CCCCN)C(=O)O)C(=O)N[C@@H](CCCCN)C(=O)N[C@@H](CCCCN)C(=O)O [(p-BthTX-I)2]
MIC (C. albicans ATCC18804): >128 µM
HC50 (peptide concentration that produced 50% hemolysis) (human red blood cells): >128 µM
MIC (S. aureus SA90; S. aureus SA90 (MRSA), CAMHB, 24 h, 37 °C): 128 µM (≈ 445 µg/mL)
MBC (S. aureus SA90; S. aureus SA90, sub-culture on MH agar, 99.9% death): 256 µM (≈ 890 µg/mL)
MIC (K. pneumoniae ATCC700603; K. pneumoniae ATCC700603 (SHV-18), CAMHB, 24 h, 37 °C): 64 µM (≈ 222 µg/mL)
MBC (K. pneumoniae ATCC700603; K. pneumoniae ATCC700603, sub-culture on MH agar, 99.9% death): 64 µM (≈ 222 µg/mL)

CC(C)C[C@H](NC(=O)[C@H](Cc1c[nH]cn1)NC(=O)[C@H](Cc1ccc(O)cc1)NC(=O)[C@H](CCCNC(=N)N)NC(=O)[C@H](Cc1ccc(O)cc1)NC(=O)[C@H](CCCCN)NC(=O)[C@@H](N)CCCCN)C(=O)N[C@@H](CCCCN)C(=O)N1CCC[C@H]1C(=O)N[C@@H](Cc1ccccc1)C(=O)N[C@@H](CSSC[C@H](NC(=O)[C@H](Cc1ccccc1)NC(=O)[C@@H]1CCCN1C(=O)[C@H](CCCCN)NC(=O)[C@H](CC(C)C)NC(=O)[C@H](Cc1c[nH]cn1)NC(=O)[C@H](Cc1ccc(O)cc1)NC(=O)[C@H](CCCNC(=N)N)NC(=O)[C@H](Cc1ccc(O)cc1)NC(=O)[C@H](CCCCN)NC(=O)[C@@H](N)CCCCN)C(=O)O)C(=O)O [des-Lys^12/Lys^13-(p-BthTX-I)2] (I: H-KKYRYHLKPFC-OH / II: H-KKYRYHLKPFC-OH; disulfide I:11-II:11)
MIC (C. albicans ATCC18804): >128 µM
HC50 (peptide concentration that produced 50% hemolysis) (human red blood cells): >128 µM
